From US11839210B1, “Plant growth promoter with strigolactones regulation activities” (King Abdullah University of Science and Technology, priority 2017, dated 2023)

What was measured:
[1] = test system: Shiokari wild-type and ccd mutant seedlings (d17, d10, d3); test: Zaxinone effect on root phenotypes of Shiokari wild-type and ccd mutant seedlings; type: in vivo, rice (Shiokari)
Method: For investigation of the zaxinone effect on CCD mutant phenotypes, one week-old seedlings were grown hydroponically in Hoagland nutrient solution containing K2HPO4·2H2O (+Pi) for 3 weeks with 2.5 μM zaxinone treatment or Mock treatment (0.1% acetone). The solution was changed every other day, adding the chemical at each renewal. Plants grown without zaxinone served as the controls and phenotypic data were recorded.
The effect of zaxinone (2.5 μM) on root phenotypes of hydroponically grown Shiokari wild-type and ccd mutant seedlings was also studied. FIG. 16D is a visual determination of root growth with (2.5 μM) zaxinone added to the growth medium and without zaxinone (control) for Shiokari wild-type seedlings and ccd mutant seedlings, d17, d10 and d3. The roots of seedlings grown with zaxinone were visually determined to be increased over the controls, with the wild-type (WT) showing the greatest increase. The visual results are confirmed by the root length and root biomass measurements seen in graphs FIG. 16D.

[2] = test system: SL biosynthesis genes (D27, CCD7, CCD8 and CO); test: qRT-PCR of transcript levels of SL biosynthesis genes (all four together) in rice roots; type: in vivo; details: for expression levels of D27, CCD7, CCD8 and CO: −Pi
Method: For the analysis of SL transcript levels in the zas mutant, one week-old seedlings were grown hydroponically in half-strength modified Hoagland nutrient solution with K2HPO4·2H2O (+Pi) and without K2HPO4·2H2O (−Pi) for 7 days. Seedlings were further treated with zaxinone for 6 h and tissues were collected.
Total RNA was extracted from the roots and shoots using a Qiagen Plant RNeasy Kit according to the manufacturer's instruction. cDNA was synthesized from 1 μg of total RNA using iScript cDNA Synthesis Kit (BIO-RAD Laboratories, Inc, 2000 Alfred Nobel Drive, Hercules, CA, Cat. No #170-8890) according to instructions in the user manual. For mycorrhizal samples, single-strand cDNA was synthesized from 1 μg of total RNA using Super-Script II (Invitrogen) according to instructions in the user manual. Primers used for real-time quantitative RT-PCR (qRT-PCR) analysis are listed below in Table 3. qRT-PCR was performed using SYBR Green Master Mix (Applied Biosystems; www.lifetechnologies.com) in a StepOnePlus (Life Technologies, Carlsbad, CA, USA). For mycorrhizal samples, qRT-PCR was performed using a Rotor-Gene Q 5plex HRM Platform (Qiagen). The 2-ΔCt method was used to calculate the relative gene expression levels and rice Ubiquitin (OsUBQ or OsRubQ1) gene was used as the internal control to normalize target gene expression.
Two week-old seedlings were grown for another one week in −Pi solution and then transferred to new vials containing fresh −Pi solution with and without the indicated concentrations (2.5 μM, 5 μM, 10 μM and 20 μM) of zaxinone for 6 h and samples were collected. SL biosynthetic genes expression for D27 (FIG. 19A), CCD7 […], CCD8 (FIG. 19C), and CO (Carlactone oxidase-FIG. 19D) in WT and zas mutants. […] The expression levels were detected by quantitative RT-PCR. Ubiquitin was used as a reference gene and the expression levels in the WT-mock were normalized to 1. Bars represent mean±SD (n=3). Different letters above each bar denote significant difference following a One-way ANOVA test (P<0.05).
Transcript levels of SL biosynthesis genes, D27 (FIG. 24C), CCD7/D17 (FIG. 24D), CCD8/D10 (FIG. 24E) and OsCO (Carlactone oxidase—FIG. 24F) in root tissues were collected for SL quantification. The expression levels were detected by qRT-PCR. Ubiquitin was used as a reference gene and the expression levels in the WT-mock were normalized to 1. Two week-old seedlings were grown for another one week in −Pi solution and then transferred to new vials containing fresh −Pi solution with and without 5 μM of zaxinone and GR24 for 6 h and samples were collected. Bars represent mean±SD (n=3). Different letters above each bar denote significant difference following a One-way ANOVA test (P<0.05).

CC(=O)/C=C/C=C(C)/C=C/C1=C(C)C[C@@H](O)CC1(C)C [zaxinone, 3-OH-β-apo-13-carotenone]
growth of roots in SL deficient mutants ([1]; SL biosynthesis and perception mutants): did not promote the growth of roots
root growth (root length and root biomass) ([1]; Shiokari wild-type and d17, d10, d3 seedlings, hydroponic, 2.5 μM zaxinone): increasing the root growth for all of the seedlings
SL transcript levels in roots ([2]; Shiokari wild-type and d3 seedlings, phosphate-starved, 5 μM, 6 h): decreased
transcript levels of D27, CCD7, CCD8 and CO ([2]; WT and zas root tissues, normal phosphorus (+Pi), zaxinone 6 h): nor was there a pronounced effect
expression levels of D27, CCD7, CCD8 and CO ([2]; wild-type roots, 2.5-20 μM zaxinone, 6 h): decreased the expression levels of the wild-type to levels below the WT/Mock control level
transcript levels of D27, CCD7, CCD8 and CO ([2]; zas mutant and wild-type seedlings, phosphate starvation, 5 μM zaxinone): decreased the transcript levels
expression levels of D27, CCD7, CCD8 and CO ([2]; zas mutant roots, increased concentrations (5, 10, 20 μM) vs 2.5 μM, 6 h): Only slight decreases
expression levels of D27, CCD7, CCD8 and CO ([2]; zas mutant roots, lowest level of zaxinone (2.5 μM), 6 h): reduced the expression levels to near the WT/Mock level
relative expression of transcript levels of D27, CCD7, CCD8 and CO ([2]; zaxinone treated zas mutants (zas/Zax), phosphate starvation, 5 μM): at or near levels for the wild-type controls
